For 18 molecules, Binding % results are on record in patent US12134620B2 (ARAXES PHARMA LLC, priority 2018, dated 2024).

In this experiment the target is T1, KRAS G12C 1-169, his-tagged protein, GDP-loaded (Homo sapiens, UniProt P01116, G12C).
T1 construct: KRAS G12C 1-169, his-tagged protein, GDP-loaded; His tag
Kind of experiment: Biochemical assay: covalent modification of KRAS G12C, analysed by mass spectrometry (RapidFire/TOF or Q-Exactive). Type of experiment: binding. As to conditions: Modification activity, modification percentage from MS peak intensities. Here is the method:
Test compounds are prepared as 10 mM stock solutions in DMSO (Fisher cat. #BP-231-100). KRAS G12C 1-169, his-tagged protein, GDP-loaded is diluted to 2 μM or 0.5 μM in buffer (20 mM Hepes, 150 mM NaCl, 1 mM MgCl2). Compounds are tested for activity as follows:
Compounds are diluted to 50× final test concentration in DMSO in 96-well storage plates. Compound stock solutions are vortexed before use and observed carefully for any sign of precipitation. Dilutions are as follow: • For 32 μM final compound concentration, compounds are diluted to 1600 μM (3 μL 10 mM compound stock+15.75 μL DMSO and mixed well by pipetting. • For 8 μM final compound concentration, compounds are diluted to 400 μM (2 μL 10 mM compound stock+48 μL DMSO) and mixed well by pipetting. 49 μL of the stock protein solution is added to each well of a 96-well PCR plate (Fisher cat #1423027). 1 μl of the diluted 50× compounds are added to appropriate wells in the PCR plate using 12-channel pipettor. Reactions are mixed carefully and thoroughly by pipetting up/down with a 200 μL multi-channel pipettor. The plate is sealed well with aluminum plate seal, and protein and compound are allowed to react for a desired amount of time. 5 μL of 2% formic acid (Fisher cat #A117) in de-ionized H2O is then added to each well followed by mixing with a pipette to quench the reaction. The plate is then resealed with aluminum seal and stored frozen on dry ice until analyzed as described below.
The above described assays are analyzed by mass spectrometry according to one of the following two procedures:
The MS instrument is set to positive polarity, 2 GHz resolution, and low mass (1700) mode and allowed to equilibrate for 30 minutes. The instrument is then calibrated, switched to acquisition mode and the appropriate method loaded.
After another 30 minute equilibration time, a blank batch (i.e., buffer) is run to ensure equipment is operating properly. The samples are thawed at 37° C. for 10 minutes, briefly centrifuged, and transfer to the bench top. Wells A1 and H12 are spiked with 1 μL 500 μM internal standard peptide, and the plates centrifuged at 2000×g for 5 minutes. The method is then run and masses of each individual well recorded.
The masses (for which integration data is desired) for each well are pasted into the platemap and exported from the analysis. Masses for the internal standards are exported as well. The data at 50 ppm is extracted for the +19 charge state, and identity of well A1 is assigned using the internal standard spike and integrated. Peak data is exported as a TOF list and the above steps are repeated individually, for the +20, +21, +22, +23, +24, and +25 charge states.
The masses and peak intensities of KRAS G12C protein species are measured using a Dionex RSLCnano system (Thermo Scientific) connected to a Q Exactive Plus mass spectrometer (Thermo Scientific).
20 μL of sample is each loaded onto a Aeris™ 3.6 μm WIDEPORE C4 200 Å, LC Column 50×2.1 mm column maintained at 40° C. at a flow rate of 600 μL/min with 80% Solvent A (0.1% formic acid in H2O) and 20% Solvent B (0.1% formic acid in acetonitrile). The liquid chromatography conditions are 20% solvent B for 1 minute, 20% to 60% solvent B for 1.5 minutes, 60% to 90% solvent for 0.5 minute, 90% solvent B for 0.2 minute, 90% to 20% solvent B for 0.2 minute, and then equilibrated for 1.6 minute before the following sample injection. The flow rate is maintained at 600 μL/min throughout the sample analysis.
The mass spectrometer is operated in profile mode at a resolution of 17500, 5 microscans, using 50 msec max injection time and an AGC target of 1×10^6, and a full mass range from 800-1850 m/z is recorded. The intact protein mode is applied for optimal ion transfer and maximum sensitivity. The ionization method is electrospray ionization, which used a spray voltage of 4 kV, sheath gas flow set to 50 AU, auxiliary gas flow set to 10 AU and sweep gas flow set to 1 AU. […]
Consider `C=CC(=O)N1CC2(CCN(c3nc(OC[C@@H]4CCCN4C)nc(-n4cnc5ccccc54)c3C#N)C2)C1` [Compound I-38, (S)-4-(2-acryloyl-2,6-diazaspiro[3.4]octan-6-yl)-6-(1H-benzo[d]imidazol-1-yl)-2-((1-mehtylpyrrolidin-2-yl)methoxy)pyrimidine-5-carbonitrile], for which the Binding % entry is “+ (+ indicates binding activity greater than 0% and up to 50%)”.

Regarding `C=CC(=O)N1CC2(CCN(c3nc(N4CC5CN(C)CC5C4)nc(-c4c(C)ccc5[nH]ncc45)c3C#N)C2)C1` (stereo not drawn) [Compound I-39, 4-(2-acryloyl-2,6-diazaspiro[3.4]octan-6-yl)-6-(5-methyl-1H-indazol-4-yl)-2-(5-methylhexahydropyr-rolo[3,4-c]pyrrol-2(1H)-yl)pyrimidine-5-carbonitrile], the Binding % result is “+ (+ indicates binding activity greater than 0% and up to 50%)”.

Regarding `C=CC(=O)N1CC2(CCN(c3nc(N4CCC5CCN(C)C5C4)nc(-c4c(C)ccc5[nH]ncc45)c3C#N)C2)C1` (stereo not drawn) [Compound I-40, 4-(2-acryloyl-2,6-diazaspiro[3.4]octan-6-yl)-6-(5-methyl-1H-indazol-4-yl)-2-(1-methyloctahydro-6H-pyrrolo[2,3-c]pyridin-6-yl)pyrimidine-5-carbonitrile], the Binding % result is given as “+++ (+++ indicates binding activity greater than 85%)”.

Consider `C=CC(=O)N1CC2(CCN(c3nc(NC(=O)c4ccccn4)nc(-c4c(C)ccc5[nH]ncc45)c3C#N)C2)C1` [Compound I-41, N-(4-(2-acryloyl-2,6-diazaspiro[3.4]octan-6-yl)-5-cyano-6-(5-methyl-1H-indazol-4-yl)pyrimidin-2-yl)picolinamide], for which the Binding % result is given as “+++ (+++ indicates binding activity greater than 85%)”.

In the case of `C=CC(=O)N1CC2(CCN(c3nc(OC4CCN(C)CC4)nc(-c4c(C)ccc5[nH]ncc45)c3C#N)C2)C1` [Compound I-43, 4-(2-acryloyl-2,6-diazaspiro[3.4]octan-6-yl)-6-(5-methyl-1H-indazol-4-yl)-2-((1-methylpiperidin-4-yl)oxy)pyrimidine-5-carbonitrile], the Binding % entry was “+++ (+++ indicates binding activity greater than 85%)”.

On to `C=CC(=O)N1CC2(CCN(c3nc(OC[C@@H]4CCCN4C)nc(Nc4cccc(C(N)=O)c4)c3C#N)C2)C1` [Compound I-44, (S)-3-((6-(2-acryloyl-2,6-diazaspiro[3.4]octan-6-yl)-5-cyano-2-((1-methylpyrrolidin-2-yl)methoxy)pyrimidin-4-yl)amino)benzamide], for which the Binding % result is “+ (+ indicates binding activity greater than 0% and up to 50%)”.

Turning to `C=CC(=O)N1CC2(CCN(c3nc(OC[C@@H]4CCCN4C)nc(-c4c(F)cccc4C(N)=O)c3C#N)C2)C1` [Compound I-45, 2-(6-(2-acryloyl-2,6-diazaspiro[3.4]octan-6-yl)-5-cyano-2-(((S)-1-methylpyrrolidin-2-yl)methoxy)pyrimidin-4-yl)-3-fluorobenzamide], the Binding % entry was “+ (+ indicates binding activity greater than 0% and up to 50%)”.

As to `C=CC(=O)N1CC2(CCN(c3nc(N4CC5CCN(C)CC5C4)nc(-c4c(C)ccc5[nH]ncc45)c3C#N)C2)C1` (stereo not drawn) [Compound I-46, 4-(2-acryloyl-2,6-diazaspiro[3.4]octan-6-yl)-6-(5-methyl-1H-indazol-4-yl)-2-(5-methyloctahydro-2H-pyrrolo[3,4-c]pyridin-2-yl)pyrimidine-5-carbonitrile], the Binding % entry is on record as “+++ (+++ indicates binding activity greater than 85%)”.

On to `C=CC(=O)N1CC2(CCN(c3nc(N4CC5CCC(C4)N5C)nc(-c4c(C)ccc5[nH]ncc45)c3C#N)C2)C1` [Compound I-47, 4-(2-acryloyl-2,6-diazaspiro[3.4]octan-6-yl)-6-(5-methyl-1H-indazol-4-yl)-2-(8-methyl-3,8-diazabicyclo[3.2.1]oc-tan-3-yl)pyrimidine-5-carbonitrile], for which the Binding % entry was “+++ (+++ indicates binding activity greater than 85%)”.

Turning to `C=CC(=O)N1CC2(CCN(c3nc(OCCc4ccccn4)nc(-c4c(C)ccc5[nH]ncc45)c3C#N)CC2)C1` [Compound I-75, 4-(2-acryloyl-2,7-diazaspiro[3.5]nonan-7-yl)-6-(5-methyl-1H-indazol-4-yl)-2-(2-(pyridin-2-yl)ethoxy)pyrimidine-5-carbonitrile], the Binding % entry is recorded as “++ (++ indicates binding activity from 50 to 85%)”.

For `C=CC(=O)N1CC2(CCN(c3nc(N4CCOCC4)nc(-c4c(C)ccc5[nH]ncc45)c3C#N)C2)C1` [Compound I-76, 4-(2-acryloyl-2,6-diazaspiro[3.4]octan-6-yl)-6-(5-methyl-1H-indazol-4-yl)-2-morpholinopyrimidine-5-carbonitrile], the Binding % entry was “++ (++ indicates binding activity from 50 to 85%)”.

As to `C=CC(=O)N1CC2(CCN(c3nc(N4CCC5(CCN(C)C5)C4)nc(-c4c(C)ccc5[nH]ncc45)c3C#N)C2)C1` (stereo not drawn) [Compound I-77, 4-(2-acryloyl-2,6-diazaspiro[3.4]octan-6-yl)-6-(5-methyl-1H-indazol-4-yl)-2-(7-methyl-2,7-diazaspiro[4.4]nonan-2-yl)pyrimidine-5-carbonitrile], the Binding % result is “+++ (+++ indicates binding activity greater than 85%)”.

In the case of `C=CC(=O)N1CC2(CCN(c3nc(N4CCOCC4)nc(-c4c(C)ccc5[nH]nc(C)c45)c3C#N)C2)C1` [Compound I-78, 4-(2-acryloyl-2,6-diazaspiro[3.4]octan-6-yl)-6-(3,5-dimethyl-1H-indazol-4-yl)-2-morpholinopyrimidine-5-carbonitrile], the Binding % result was “+++ (+++ indicates binding activity greater than 85%)”.

Consider `C=CC(=O)N1CC2(CCN(c3nc(N4CCOCC4)nc(-c4c(C)ccc5c4cnn5C)c3C#N)C2)C1` [Compound I-79, 4-(2-acryloyl-2,6-diazaspiro[3.4]octan-6-yl)-6-(1,5-dimethyl-1H-indazol-4-yl)-2-morpholinopyrimidine-5-carbonitrile], for which the Binding % result is “+ (+ indicates binding activity greater than 0% and up to 50%)”.

On to `C=CC(=O)N1CC2(CCN(c3nc(N4CCOCC4)nc(-c4cc(O)cc5ccccc45)c3C#N)C2)C1` [Compound I-80, 4-(2-acryloyl-2,6-diazaspiro[3.4]octan-6-yl)-6-(3-hydroxynaphthalen-1-yl)-2-morpholinopyrimidine-5-carbonitrile], for which the Binding % entry is “+++ (+++ indicates binding activity greater than 85%)”.

For `C=CC(=O)N1CC2(CCN(c3nc(OC[C@@H]4CN(C)CCO4)nc(-c4c(C)ccc5[nH]ncc45)c3C#N)C2)C1` [Compound I-81, 4-(2-acryloyl-2,6-diazaspiro[3.4]octan-6-yl)-6-(5-methyl-1H-indazol-4-yl)-2-(((S)-4-methylmorpholin-2-yl)methoxy)pyrimidine-5-carbonitrile], the Binding % result is “+++ (+++ indicates binding activity greater than 85%)”.

Regarding `C=CC(=O)N1CC2(CCN(c3nc(OC[C@@H]4CCCN4C)nc(-c4c(C)ccc5cn[nH]c45)c3C#N)C2)C1` [Compound I-82, 4-(2-acryloyl-2,6-diazaspiro[3.4]octan-6-yl)-6-(6-methyl-1H-indazol-7-yl)-2-(((S)-1-methylpyrrolidin-2-yl)methoxy)pyrimidine-5-carbonitrile], the Binding % entry is “+ (+ indicates binding activity greater than 0% and up to 50%)”.

Regarding `C/C=C/C(=O)N1CC2(CCN(c3nc(N4CCOCC4)nc(-c4c(C)ccc5[nH]ncc45)c3C#N)C2)C1` [Compound I-83, (E)-4-(2-(but-2-enoyl)-2,6-diazaspiro[3.4]octan-6-yl)-6-(5-methyl-1H-indazol-4-yl)-2-morpholinopyrimidine-5-carbonitrile], the Binding % entry is “+ (+ indicates binding activity greater than 0% and up to 50%)”.
